Consider one compound from publication PMC5429769, “Rational development of Stafib-2: a selective, nanomolar inhibitor of the transcription factor STAT5b” (Scientific Reports, 2017).

What all share (type): binding
For assay [1], the target named is T1, STAT5b Phe633Ala (Homo sapiens, UniProt P51692, F633A).
T1 sequence (P51692 1-787 F633A): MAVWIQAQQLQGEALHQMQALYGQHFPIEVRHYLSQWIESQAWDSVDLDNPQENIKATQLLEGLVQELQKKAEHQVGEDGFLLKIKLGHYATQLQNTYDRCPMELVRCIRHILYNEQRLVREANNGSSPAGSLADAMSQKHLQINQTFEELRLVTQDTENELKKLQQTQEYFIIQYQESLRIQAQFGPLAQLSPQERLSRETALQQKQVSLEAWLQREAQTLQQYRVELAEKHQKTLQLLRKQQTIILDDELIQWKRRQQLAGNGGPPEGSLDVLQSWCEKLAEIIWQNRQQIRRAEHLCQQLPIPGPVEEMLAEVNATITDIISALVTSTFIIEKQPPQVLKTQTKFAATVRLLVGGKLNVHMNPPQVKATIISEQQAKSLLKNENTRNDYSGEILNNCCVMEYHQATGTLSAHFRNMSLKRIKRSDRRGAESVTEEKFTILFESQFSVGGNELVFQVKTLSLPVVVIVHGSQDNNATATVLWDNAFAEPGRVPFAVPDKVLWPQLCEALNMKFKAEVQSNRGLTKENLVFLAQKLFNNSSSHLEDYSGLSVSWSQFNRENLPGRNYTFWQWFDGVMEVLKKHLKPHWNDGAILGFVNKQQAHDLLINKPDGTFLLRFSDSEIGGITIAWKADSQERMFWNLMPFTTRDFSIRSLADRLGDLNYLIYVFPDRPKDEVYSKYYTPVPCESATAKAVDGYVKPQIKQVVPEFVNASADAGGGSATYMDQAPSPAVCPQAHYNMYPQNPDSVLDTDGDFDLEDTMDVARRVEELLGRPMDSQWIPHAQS
Put plainly: Isothermal titration calorimetry, STAT5b Phe633Ala. Particulars: ITC, 25 °C, n = 2.

Assay [2] addresses T2, STAT5b Lys600Ala (Homo sapiens, UniProt P51692, K600A).
T2 sequence (P51692 1-787 K600A): T1 sequence (P51692 1-787 F633A) with K600A, A633F
Put plainly: Isothermal titration calorimetry, STAT5b Lys600Ala. Particulars: ITC, 25 °C.

The target of assay [3] is T3, STAT5a wild-type (Homo sapiens, UniProt P42229).
T3 sequence (P42229 1-794): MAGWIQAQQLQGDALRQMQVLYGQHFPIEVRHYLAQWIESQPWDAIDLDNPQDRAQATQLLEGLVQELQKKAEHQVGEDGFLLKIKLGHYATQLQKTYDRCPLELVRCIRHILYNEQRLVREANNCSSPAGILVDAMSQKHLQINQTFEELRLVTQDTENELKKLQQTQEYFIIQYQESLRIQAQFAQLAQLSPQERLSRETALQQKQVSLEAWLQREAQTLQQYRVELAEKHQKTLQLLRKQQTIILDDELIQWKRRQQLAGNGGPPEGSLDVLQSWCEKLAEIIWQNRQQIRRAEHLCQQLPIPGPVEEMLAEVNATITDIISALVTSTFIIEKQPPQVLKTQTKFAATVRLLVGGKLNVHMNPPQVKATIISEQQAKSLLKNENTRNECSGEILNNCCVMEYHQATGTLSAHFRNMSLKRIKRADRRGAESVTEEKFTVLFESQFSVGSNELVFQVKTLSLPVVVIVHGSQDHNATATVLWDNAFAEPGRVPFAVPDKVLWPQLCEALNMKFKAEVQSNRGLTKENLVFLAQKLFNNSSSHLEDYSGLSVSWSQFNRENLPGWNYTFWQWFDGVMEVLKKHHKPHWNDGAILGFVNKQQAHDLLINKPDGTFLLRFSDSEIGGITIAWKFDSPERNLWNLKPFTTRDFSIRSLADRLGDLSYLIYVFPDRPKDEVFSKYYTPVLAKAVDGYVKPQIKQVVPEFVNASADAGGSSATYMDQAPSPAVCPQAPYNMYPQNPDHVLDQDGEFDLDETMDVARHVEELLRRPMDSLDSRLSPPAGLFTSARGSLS
Put plainly: Isothermal titration calorimetry, STAT5a wild-type.

As a reminder, the Kd is a measure of binding affinity in units of concentration.

Substitutions are numbered along the chain they refer to.

Turning to `O=C(COc1ccc(C(=O)Nc2ccc(Oc3ccccc3)cc2)cc1)NCc1ccc(OP(=O)(O)O)c(OP(=O)(O)O)c1` [compound 4, 4-((2-(4-((4-phenoxyphenyl)carbamoyl)phenoxy)acetamido)methyl)-1,2-phenylene bis(dihydrogen phosphate)], the Kd in assay [1] worked out at 1.65 ± 0.02 µM; in assay [2] it was 23 ± 10 µM; in assay [3] (ITC, 25 °C, STAT5a), 6.1 ± 3.2 µM. Moreover, in assay [1], the ΔH was -4.3 ± 0.2 kcal/mol. The “−TΔS” value in assay [1] was -3.6 ± 0.2 kcal/mol. Further, the “fold lower affinity for STAT5a than for STAT5b” value in assay [3] (ITC Kd STAT5a vs wild-type STAT5b) is reported as “approximately 20 fold”.
